Measurements: patent US11918589B2, “Medicament for treatment of multiple sclerosis” (NIPPON CHEMIPHAR CO., LTD., priority 2016, dated 2024)

Assays:
EAE model rats [1] = test: Therapeutic repetitive oral administration to EAE model rats, pain threshold; format: in vivo, rat; conditions: orally twice a day 10 mg/kg over 21 days from Day 10 (average EAE score 2 or larger), FIG. 4
Experimental: (§1) EAE model rats were prepared by the same method as that of Example 2. […] For symptom observation, behaviors of the animals allowed to freely act were scored in accordance with the criteria shown in Table 111. The pain threshold was measured after the animals were put into a cage for measurement of which floor is made of a wire gauze, and acclimatized in the environment for 20 minutes or longer. The measurement of the pain threshold was performed according to the method of Chaplan et al. using 7 of von Frey filaments giving different stimulation intensities, and the 50% pain threshold was calculated by the up-down method of Dixon.
EAE model rats were prepared by the same method as that of Example 2.

EAE model rats [2] = test: Preventive repetitive oral administration to EAE model rats, pain threshold (von Frey, up-down method), symptoms (EAE score), weight; format: in vivo, rat; conditions: orally twice a day 10 mg/kg over 22 days from Day 0, von Frey 50% pain threshold, FIG. 3
Experimental: as §1

EAE model rats [3] = test: Preventive continuous administration into the subarachnoid cavity of EAE model rats, pain threshold; format: in vivo, rat; conditions: preventive continuous administration into the subarachnoid cavity 10 nmol/5 μL/hr for about 14 days, FIG. 5
Experimental: A polystyrene catheter having an external diameter of 0.30 mm was detained in the subarachnoid cavity in each of 10 weeks old LEW/CrlCrlj female rats. After about one week from the detainment of the catheter for administration in the subarachnoid cavity, EAE model rats were prepared by the same method as that of Example 2.

EAE model animals = conditions: reported in the literature; cited from earlier work

O=C1CC(=O)N(c2ccc(NC(=O)c3ccccc3I)cc2)c2ccc3ccccc3c2N1 [compound A, 5-[4-(2-iodobenzoyl)aminophenyl]-1H-naphtho[1,2-b][1,4]diazepine-2,4(3H,5H)-dione]
influence on the pain threshold (mechanical allodynia induced by EAE) (EAE model rats [1]): suppressed mechanical allodynia induced by EAE
influence on the pain threshold (mechanical allodynia induced by EAE) (EAE model rats [2]): continuously suppressed mechanical allodynia induced by EAE

O=C1CC(=O)N(c2cccc(-c3nnn[nH]3)c2)c2ccc3ccccc3c2N1.[Na] [compound B, 5-[3-(1H-tetrazol-5-yl)phenyl]-1H-naphtho[1,2-b][1,4]diazepine-2,4(3H,5H)-dione sodium salt]
influence on the pain threshold (mechanical allodynia induced by EAE) (EAE model rats [3]): suppressed mechanical allodynia induced by EAE

CN1CC[C@]23c4c5ccc(O)c4O[C@H]2[C@@H](O)C=C[C@H]3[C@H]1C5 [morphine]
analgesic action in allodynia observed in the EAE model (EAE model animals): markedly decreases
